According to US20240207202A1, “COMBINATION THERAPIES TARGETING MITOCHONDRIAL BIOGENESIS FOR CANCER THERAPY” (The Wistar Institute of Anatomy and Biology, priority 2015, published 2024):

Key:
Format in all cases: cell-based, human
SOD2 = SOD2 expression in WM9 cells (qRT-PCR, immunoblot); settings: WM9, 72 h, Gamitrinib 1 μM with MAPK pathway inhibitors
Experimental: One μg total mRNA was reverse transcribed using a Maxima First Strand cDNA Synthesis Kit for qRT-PCR (Thermo Fisher). Fast SYBR® Green Master Mix (Life Technologies) was used with cDNA template and primers to evaluate the expression of target genes and GAPDH. Primers used were purchased from Integrated DNA Technologies. Amplifications were performed using an Applied Biosystems® 7500 Real-Time PCR System (Life Technologies). All experiments were performed in triplicate. Expression ratios of controls were normalized to 1. Please see Extended Experimental Procedures for the list of PCR primer sequences.
Cells were washed with ice-cold PBS containing 100 μM Na3VO4 and scraped off culture dishes. After centrifugation, cell pellets were lysed in buffer containing 10 mM Tris-HCl, pH 7.8, 150 mM NaCl, 1 mM EDTA, 1% Nonidet P-40, 1 mM Na3VO4 and protease inhibitors (Roche complete protease inhibitor tablets). Lysates were cleared by micro-centrifugation and protein concentrations were determined with Protein Assay Dye Reagent Concentrate (Bio-Rad). For western blots, 25 μg of each lysate were run on 15-well 10% or 12% SDS-PAGE gels and transferred onto nitrocellulose membranes using a dye fast Trans-BlotR Turbo™ transfer system (Bio-Rad). […]

reactive oxygen species = assay: ROS by CellROX Deep Red; settings: WM9, 72 h, Gamitrinib 1 μM with PLX4720 10 μM and PD0325901 1 μM
Experimental: (§1) Adherent melanoma cells were harvested with 0.05% Trypsin-EDTA and were washed once with 1×DPBS. Cells were labeled with CellTrace™ Violet according to the manufacturer's protocol and were allowed to adhere to tissue culture plates overnight following the drug treatment. At indicated time points following the drug treatment, floating and adherent cells were pooled, washed with Hank's Buffered Salt Solution (HBSS) and then stained with CellROX Deep Red at 2.5 μM or MitoTracer Red at 0.25 μM for 1 h in a 37° C. humidified incubator supplied with 5% CO2. Cells were then pelleted, washed with DPBS, and stained with PSVue® 643 at 5 μM diluted in TES buffer for 5 min in the dark. Cells were then immediately subjected to FACS analysis using a BD LSR II flow cytometer and at least 5,000 cells per sample were acquired.
Labeling cells with CellROX Deep Red—Following drug treatment, floating and adherent cells were pooled and stained in FACS tubes with CellROX Deep Red at 2.5 μM. Fluorescent dyes were diluted in 10% DMEM/F12 culture medium. Stained cell suspensions were kept in a 37° C. tissue culture incubator for 60 min with brief vortexing every 30 min. Cells were then washed with 1×PBS supplemented with 10% FBS.

mitochondrial mass = assay: Mitochondrial mass by MitoTracker Red; settings: WM9, 72 h, Gamitrinib 1 μM combined with MAPK pathway inhibitors
Experimental: as §1

melanoma cells = assay: Cell clonogenicity (colony formation); settings: long-term pretreatment, Gamitrinib 0.25 and 0.5 μM in combination with PLX4720
Experimental: Cell viability was measured by the MTT assay or CellTiter-Glo luminescent cell viability assay (Promega). For the assessment of cell clonogenicity, cells were seeded into 12-well tissue culture plates at a density of 500 cells/well as biological triplicates in drug-free medium. Medium was refreshed every 3 or 4 days for 14 days. Colonies were then stained overnight with methanol containing 0.05% crystal violet. After extensive washing with distilled H2O, cells were air-dried and subjected to image acquisition using a Nikon D200 DLSR camera.

Substance: Gamitrinib
- SOD2 expression compared to MAPK pathway inhibitors alone, mRNA and protein (SOD2): up-regulation of SOD2
- ROS production compared to MAPK pathway inhibitors alone (reactive oxygen species): markedly increased the ROS production
- mitochondrial mass (mitochondrial mass): decreases
- colony formation (melanoma cells): substantially inhibited colony formation
